US20130072519A1, “2-PHENYL BENZOYLAMIDES” (priority 2010, published 2013)

Experiments:
[1] = Human liver microsomal stability; format: in vitro ADME; details: Human Liver Microsomes 0.76 mg/mL, 1 μM compound, 37° C.; for Compound remaining (%) at 4 min: pH 7.4, 4 min; for Compound remaining (%) at 30 min: pH 7.4, 30 min
Protocol: (§1) Pooled human liver or intestinal microsomes (final concentration 0.76 mg/mL) were diluted in 100 mM potassium phosphate buffer (pH 7.4) and preincubated at 37° C. The compounds of interest were dissolved in DMSO (30 mM), diluted to 100 μM in acetonitrile or methanol, and added to the microsomal incubations to achieve a final concentration of 1 μM with 1% or less final organic solvent. The mixtures were incubated for 30 min at 37° C. Aliquots were removed at predetermined times and quenched with an excess acetonitrile, containing an internal standard, on ice. Following centrifugation, the analytes were quantified by liquid chromatography-tandem mass spectrometry (LC-MS/MS). The compound remaining (%) was calculated from the analyte area ratio at the predetermined time/initial analyte area ratio at time 0×100.

[2] = Human intestinal microsomal stability; format: in vitro ADME; details: Human Intestinal Microsomes 0.76 mg/mL, 1 μM compound, 37° C.; for Compound remaining (%) at 4 min: pH 7.4, 4 min; for Compound remaining (%) at 30 min: pH 7.4, 30 min
Protocol: as §1

[3] = tested on: Apolipoprotein B Secretion from HepG2 Cells; test: Inhibition of Apolipoprotein B secretion from HepG2 cells (ELISA); format: cell-based, human; details: 22-24 hours incubation, ApoB ELISA, Low/High IC50 columns give the 95% confidence interval
Protocol: Inhibition of Apolipoprotein B Secretion from HepG2 Cells
To assess the inhibitory effect of the compounds of the invention on ApoB production, an endogenously ApoB producing cell line, HEPG2, was implemented in an in vitro ELISA assay. HEPG2 cells are plated at 25,000 per well (96-well plates) in media consisting of DMEM Low Glucose, 1% NEAA (non-essential amino acids), 10% FBS (heat inactivated), 1% L-Glutamine, and 1% Antimycotic-Antibiotic and incubated for 16-18 hours at 37° C. and 5% CO2. After the 16-18 hour incubation, a 12 point half-log serial of the inhibitor (1000 nM-0.003 nM) is prepared, and 1.5 ul of the serial dilution is added to HEPG2 cells, which have had their media decanted and replaced with 148 ul of fresh media, and the cells are incubated for 22-24 hours at 37° C. and 5% CO2. Two and a half hours before the 22-24 hour incubation period is completed, Nunc Maxisorp plates are coated with 100 ul of primary (coating) antibody (goat anti-apoB), diluting to a ratio of 1:1000 in 1% Carbonate-Bicarbonate Coating Buffer and incubated for at least 2 hours at room temperature before the primary antibody is decanted and the wells of the microplate are washed with 200 ul of washing buffer (1% PBS, 0.05% Tween20). Next, 200 ul of blocking buffer (1% PBS, 1:500 Western Block, 5 mg/ml BSA) is added to the wells of the microplate, and incubated for at least 30 mins. Following the 22-24 hours incubation period, cell plates are removed from the incubator, 20 ul of supernatant from each well is aspirated, added to a corresponding well in 96 well plate containing 140 ul of diluent (1:2-Blocking Buffer: Washing Buffer), and mixed. Then, 120 ul is aspirated from the dilutent-supernatant plate, added to the blocked Nunc Maxisorp 96 well plate, and placed at room temperature on a shaker to mix for at least 2 hours. The secondary (capture) antibody (mouse anti-human apoB) is prepared at a ratio of 1:4000, and the detection antibody (goat anti-mouse HRP conjugated antibody) at a ratio of 1:10,000. For each antibody, 100 ul is added to each well of the microplate and the microplate is incubated at room temperature for 2 hours, washing the microplates between each antibody addition. Colorimetric development is achieved by adding 50 ul of TMB reagent to each well, incubating for 5 mins at room temperature, then adding 50 ul of 2M Sulfuric Acid to each well. Absorbance at 450 nm is monitored in an Envision plate reader to measure the amount of ApoB formed.
Results reported as average IC50, low and high IC50 range (95% confidence interval).

[4] = Homo sapiens, HepG2, HepG2 cells

CCOC(=O)C1(COC(=O)Cc2ccc(NC(=O)c3ccc(C)cc3-c3ccc(C(F)(F)F)cc3)c(C(=O)N(C)C)c2)c2ccccc2C(=O)N1C (single isomer, unassigned) [Example 56, ethyl 1-({2-[3-(dimethylcarbamoyl)-4-({[5-methyl-4′-(trifluoromethyl)biphenyl-2-yl]carbonyl}amino)phenyl]acetoxy}methyl)-2-methyl-3-oxoisoindoline-1-carboxylate]
Compound remaining (%) at 4 min [1]: 38%
Compound remaining (%) at 30 min [1]: 3%
Compound remaining (%) at 4 min [2]: 100%
Compound remaining (%) at 30 min [2]: 87%
IC50 [3, 4]: 0.147 nM

CCOC(=O)C1(COC(=O)Cc2ccc(NC(=O)c3ccc(C)cc3-c3ccc(C(F)(F)F)cc3)c(C(=O)N(C)C)c2)CCc2cccnc21 (single isomer, unassigned) [Example 59, ethyl 7-({2-[3-(dimethylcarbamoyl)-4-({[5-methyl-4′-(trifluoromethyl)biphenyl-2-yl]carbonyl}amino)phenyl]acetoxy}methyl)-6,7-dihydro-5H-cyclopenta[b]pyridine-7-carboxylate]
Compound remaining (%) at 4 min [1]: 22%
Compound remaining (%) at 30 min [1]: 1.1%
Compound remaining (%) at 4 min [2]: 102%
IC50 [3, 4]: 0.712 nM

CCOC(=O)C1(COC(=O)Cc2ccc(NC(=O)c3ccccc3-c3ccc(OC(C)C)cc3)c(C(=O)N(C)C)c2)CCc2cccnc21 (single isomer, unassigned) [Example 60, ethyl 7-({2-[3-(dimethylcarbamoyl)-4-({[4′-isopropoxybiphenyl-2-yl)carbonyl]amino}phenyl]acetoxy}methyl)-6,7-dihydro-5H-cyclopenta[b]pyridine-7-carboxylate]
Compound remaining (%) at 4 min [1]: 110%
Compound remaining (%) at 30 min [1]: 8.5%
Compound remaining (%) at 4 min [2]: 107%
Compound remaining (%) at 30 min [2]: 100%
IC50 [3, 4]: 0.535 nM

CCOC(=O)C1(COC(=O)Cc2ccc(NC(=O)c3cccc(OC)c3-c3ccc(C(F)(F)F)cc3)c(C(=O)N(C)C)c2)CCc2cccnc21 (single isomer, unassigned) [Example 61, ethyl 7-({2-[3-(dimethylcarbamoyl)-4-({[6-methoxy-4′-(trifluoromethyl)biphenyl-2-yl]carbonyl}amino)phenyl]acetoxy}methyl)-6,7-dihydro-5H-cyclopenta[b]pyridine-7-carboxylate]
Compound remaining (%) at 4 min [1]: 65%
Compound remaining (%) at 30 min [1]: 4.7%
Compound remaining (%) at 4 min [2]: 106%
Compound remaining (%) at 30 min [2]: 106%
IC50 [3, 4]: 0.395 nM

CCOC(=O)[C@]1(COC(=O)Cc2ccc(NC(=O)c3cccc(C)c3-c3ccc(C(F)(F)F)cc3)c(C(=O)N(C)C)c2)c2ccccc2C(=O)N1C [Example 49, Ethyl (1R)-1-({2-[3-(Dimethylcarbamoyl)-4-({[6-methyl-4′-(trifluoromethyl)biphenyl-2-yl]carbonyl}amino)phenyl]acetoxy}methyl)-2-methyl-3-oxoisoindoline-1-carboxylate]
Compound remaining (%) at 4 min [1]: 42%
Compound remaining (%) at 30 min [1]: 2.7%
Compound remaining (%) at 4 min [2]: 100%
Compound remaining (%) at 30 min [2]: 83%
IC50 [3, 4]: 0.242 nM

CCOC(=O)[C@]1(COC(=O)Cc2ccc(NC(=O)c3ccccc3-c3ccc(OC(C)C)cc3)c(C(=O)N(C)C)c2)c2ccccc2C(=O)N1C [Example 50, Ethyl (1R)-1-({2-[3-(dimethylcarbamoyl)-4-{[(4′-isopropoxybiphenyl-2-yl)carbonyl]amino}phenyl]acetoxy}methyl)-2-methyl-3-oxoisoindoline-1-carboxylate]
Compound remaining (%) at 4 min [1]: 48%
Compound remaining (%) at 30 min [1]: 3.7%
Compound remaining (%) at 4 min [2]: 100%
Compound remaining (%) at 30 min [2]: 92%
IC50 [3, 4]: 0.124 nM

CCOC(=O)[C@]1(COC(=O)Cc2ccc(NC(=O)c3ccc(OC)cc3-c3ccc(C(C)(C)C)cc3)c(C(=O)N(C)C)c2)c2ccccc2C(=O)N1C [Example 69, ethyl (1R)-1-({2-[4-{[(4′-tert-butyl-5-methoxybiphenyl-2-yl)carbonyl]amino}-3-(dimethylcarbamoyl)phenyl]acetoxy}methyl)-2-methyl-3-oxoisoindoline-1-carboxylate]
IC50 [3, 4]: 0.18 nM

CCOC(=O)[C@]1(COC(=O)Cc2ccc(NC(=O)c3ccc(OC)cc3-c3ccc(C(F)(F)F)cc3)c(C(=O)N(C)C)c2)c2ccccc2C(=O)N1C [Example 70, ethyl (1R)-1-({2-[3-(dimethylcarbamoyl)-4-({[5-methoxy-4′-(trifluoromethyl)biphenyl-2-yl]carbonyl}amino)phenyl]acetoxy}methyl)-2-methyl-3-oxoisoindoline-1-carboxylate]
Compound remaining (%) at 4 min [1]: 61%
Compound remaining (%) at 30 min [1]: 6.4%
Compound remaining (%) at 4 min [2]: 98%
Compound remaining (%) at 30 min [2]: 96%
IC50 [3, 4]: 0.414 nM

CCOC(=O)[C@]1(COC(=O)Cc2ccc(NC(=O)c3cccc(OC)c3-c3ccc(C(F)(F)F)cc3)c(C(=O)N(C)C)c2)c2ccccc2C(=O)N1C [Example 71, ethyl (1R)-1-({2-[3-(dimethylcarbamoyl)-4-({[6-methoxy-4′-(trifluoromethyl)biphenyl-2-yl]carbonyl}amino)phenyl]acetoxy}methyl)-2-methyl-3-oxoisoindoline-1-carboxylate]
Compound remaining (%) at 4 min [1]: 45%
Compound remaining (%) at 30 min [1]: 5.3%
Compound remaining (%) at 4 min [2]: 125%
Compound remaining (%) at 30 min [2]: 94%
IC50 [3, 4]: 0.176 nM

CCOC(=O)[C@]1(COC(=O)Cc2ccc(NC(=O)c3ccccc3-c3ccc(C(C)C)cc3)c(C(=O)N(C)C)c2)c2ccccc2C(=O)N1C [Example 73, ethyl (1R)-1-({2-[3-(dimethylcarbamoyl)-4-{[(4′-isopropylbiphenyl-2-yl)carbonyl]amino}phenyl]acetoxy}methyl)-2-methyl-3-oxoisoindoline-1-carboxylate]
IC50 [3, 4]: 0.162 nM

CCOC(=O)[C@]1(COC(=O)Cc2ccc(NC(=O)c3ccccc3-c3ccccc3)c(C(=O)N(C)C)c2)c2ccccc2C(=O)N1C [Example 74, ethyl (1R)-1-[(2-{4-[(biphenyl-2-ylcarbonyl)amino]-3-(dimethylcarbamoyl)phenyl}acetoxy)methyl]-2-methyl-3-oxoisoindoline-1-carboxylate]
IC50 [3, 4]: 1.28 nM

CCOC(=O)[C@]1(COC(=O)Cc2ccc(NC(=O)c3ccccc3-c3ccccc3OC)c(C(=O)N(C)C)c2)c2ccccc2C(=O)N1C [Example 75, ethyl (1R)-1-({2-[3-(dimethylcarbamoyl)-4-{[(2′-methoxybiphenyl-2-yl)carbonyl]amino}phenyl]acetoxy}methyl)-2-methyl-3-oxoisoindoline-1-carboxylate]
IC50 [3, 4]: 4.16 nM

CCOC(=O)[C@]1(COC(=O)Cc2ccc(NC(=O)c3ccccc3-c3ccc(OC(C)C)cc3)c(C(=O)N(C)C)c2)c2ccccc2C(=O)N1C [Example 77, Ethyl (1R)-1-({2-[3-(dimethylcarbamoyl)-4-{[(4′-isopropoxybiphenyl-2-yl)carbonyl]amino}phenyl]acetoxy}methyl)-2-methyl-3-oxoisoindoline-1-carboxylate]
IC50 ([3]; HepG2 cells): 0.119 nM
